Assay results taken from patent US11850250B2, “Use of homoharringtonine in preparation of betacoronavirus replication inhibitor in human” (priority 2020, dated 2023).

What was measured:
60 human cell lines = assay: Cytotoxicity of HHT in 60 human cell lines; details: 1 μM (or lower) for 48 hours; cell lines other than the few that died obviously, of 60 human cell lines
SARS-CoV-2 = assay: microbe, parasite or virus in culture; format: cell-based; details: Severe acute respiratory syndrome coronavirus 2, Vero C1008, read-out: Inhibition rate (%)

Question: How did the cell viability (60 human cell lines) turn out when `COC(=O)C[C@](O)(CCCC(C)(C)O)C(=O)O[C@@H]1C(OC)=C[C@]23CCCN2CCc2cc4c(cc2[C@H]13)OCO4` [HHT, Homoharringtonine] was run?
Answer: about 100%

Question: And the inhibition at 0.186 µM (SARS-CoV-2; drug concentration 0.186 μM)?
Answer: 31.7 ± 7.64%

Question: And the inhibition at 0.375 µM (SARS-CoV-2; drug concentration 0.375 μM)?
Answer: 60 ± 8.66%

Question: And the inhibition at 0.75 µM (SARS-CoV-2; drug concentration 0.75 μM)?
Answer: 86.7 ± 2.89%

Question: What about the inhibition at 1.5 µM (SARS-CoV-2; drug concentration 1.50 μM) of the same compound?
Answer: 93.3 ± 2.89%
